This note sets out measurements from ChEMBL document CHEMBL2151022, “Combatting Drug-Resistant Bacteria with Gyrase and Topoisomerase IV Inhibitors: Patent Highlight” (ACS Med Chem Lett, 2012).

The experiment addresses DNA gyrase subunit B (Staphylococcus aureus, UniProt P0A0K8). Nature of the experiment: Inhibition of Staphylococcus aureus DNA gyrase Gyr B subunit by ATPase assay.

SMILES strings stand for the structures. A value given as a limit tells only on which side of the number the result lay.

DNA gyrase subunit B, sequence (P0A0K8 whole entry): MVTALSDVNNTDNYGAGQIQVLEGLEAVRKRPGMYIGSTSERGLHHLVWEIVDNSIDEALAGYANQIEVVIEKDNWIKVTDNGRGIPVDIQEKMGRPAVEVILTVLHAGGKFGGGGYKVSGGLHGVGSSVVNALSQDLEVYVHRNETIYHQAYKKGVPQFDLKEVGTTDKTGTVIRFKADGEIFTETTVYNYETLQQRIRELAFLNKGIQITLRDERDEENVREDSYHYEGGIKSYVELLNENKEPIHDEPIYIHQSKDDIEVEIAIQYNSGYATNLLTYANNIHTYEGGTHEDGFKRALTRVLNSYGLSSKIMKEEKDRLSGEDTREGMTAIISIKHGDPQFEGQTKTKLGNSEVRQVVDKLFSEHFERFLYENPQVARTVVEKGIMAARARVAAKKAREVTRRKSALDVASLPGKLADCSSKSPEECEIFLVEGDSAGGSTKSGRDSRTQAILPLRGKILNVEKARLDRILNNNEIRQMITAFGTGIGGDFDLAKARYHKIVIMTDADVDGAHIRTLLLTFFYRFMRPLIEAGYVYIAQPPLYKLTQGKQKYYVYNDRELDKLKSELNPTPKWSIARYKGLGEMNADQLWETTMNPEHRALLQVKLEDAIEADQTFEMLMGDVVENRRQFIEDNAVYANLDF

`CCNC(=O)Nc1nc2cc(-c3cnc(C(C)(C)OP(=O)(O)O)nc3)c(F)c([C@H]3CCCO3)c2[nH]1` had a Ki of under 9 nM.

One may read the Ki as a measure of affinity in units of concentration, obtained from inhibition or displacement. A lower Ki goes with tighter binding.
